Assay results from PMC8253220, “Molecular design, synthesis and in vitro biological evaluation of thienopyrimidine–hydroxamic acids as chimeric kinase HDAC inhibitors: a challenging approach to combat cancer” (Journal of Enzyme Inhibition and Medicinal Chemistry, 2021).
Values joined by “and” are separate entries in the source; they are usually repeats but may differ in a detail not shown here. Identical values can stand only once.

Experiments:
HCT-15 = test: NCI one-dose screen; type: cell-based, human; details: Colon HCT-15, 10 µM single dose
Method in brief: (§1)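 At 10 μM, a single concentration, compounds were evaluated for antiproliferative effect in the NCI 60-line screen, with growth expressed relative to untreated control cells.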

K-562 = test: NCI one-dose screen; type: cell-based, human; details: Leukemia K-562, 10 µM single dose
Method in brief: as §1

PC-3 = test: NCI one-dose screen; type: cell-based, human; details: Prostate PC-3, 10 µM single dose
Method in brief: (§2)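 Compounds were tested at a single dose of 10 μM across the full NCI-60 cell line panel. Growth was expressed as percent growth relative to untreated control cells, reported as percent inhibition.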

HT29 = test: NCI one-dose screen; type: cell-based, human; details: Colon HT29, 10 µM single dose
Method in brief: as §1

NCI/ADR-RES = test: NCI one-dose screen; type: cell-based, human; details: Ovarian NCI/ADR-RES, 10 µM single dose
Method in brief: as §1

MDA-MB-435 = test: NCI one-dose screen; type: cell-based, human; details: Melanoma MDA-MB-435, 10 µM single dose
Method in brief: as §1

MDA-MB-468 = test: NCI one-dose screen; type: cell-based, human; details: Breast MDA-MB-468, 10 µM single dose
Method in brief: (§3)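 Single 10 μM dose, NCI-60 panel; read-out = % growth vs untreated controls → % inhibition.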

OVCAR-8 = test: NCI one-dose screen; type: cell-based, human; details: Ovarian OVCAR-8, 10 µM single dose
Method in brief: as §1

OVCAR-5 = test: NCI one-dose screen; type: cell-based, human; details: Ovarian OVCAR-5, 10 µM single dose
Method in brief: as §1

SK-MEL-5 = test: NCI one-dose screen; type: cell-based, human; details: Melanoma SK-MEL-5, 10 µM single dose
Method in brief: as §1

HL-60(TB) = test: NCI one-dose screen; type: cell-based, human; details: Leukemia HL-60(TB), 10 µM single dose
Method in brief: as §1

SN12C = test: NCI one-dose screen; type: cell-based, human; details: Renal SN12C, 10 µM single dose
Method in brief: as §1

NCI-H460 = test: NCI one-dose screen; type: cell-based, human; details: NSCLC NCI-H460, 10 µM single dose
Method in brief: as §1

SK-MEL-28 = test: NCI one-dose screen; type: cell-based, human; details: Melanoma SK-MEL-28, 10 µM single dose
Method in brief: as §2

UO-31 = test: NCI one-dose screen; type: cell-based, human; details: Renal UO-31, 10 µM single dose
Method in brief: (§4)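 Single dose of 10 μM tested across the full NCI-60 cell panel. Values are percent growth inhibition relative to untreated control cells, following standard NCI methodology.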

NCI-H23 = test: NCI one-dose screen; type: cell-based, human; details: NSCLC NCI-H23, 10 µM single dose
Method in brief: as §3

OVCAR-4 = test: NCI one-dose screen; type: cell-based, human; details: Ovarian OVCAR-4, 10 µM single dose
Method in brief: as §1

CCRF-CEM = test: NCI one-dose screen; type: cell-based, human; details: Leukemia CCRF-CEM, 10 µM single dose
Method in brief: as §1

SNB-75 = test: NCI one-dose screen; type: cell-based, human; details: CNS SNB-75, 10 µM single dose
Method in brief: as §4

BT-549 = test: NCI one-dose screen; type: cell-based, human; details: Breast BT-549, 10 µM single dose
Method in brief: as §1

U251 = test: NCI one-dose screen; type: cell-based, human; details: CNS U251, 10 µM single dose
Method in brief: as §4

NCI-H322M = test: NCI one-dose screen; type: cell-based, human; details: NSCLC NCI-H322M, 10 µM single dose
Method in brief: as §1

full NCI 60 cell panel = test: NCI one-dose screen, whole panel statistics; type: cell-based, human; details: 1.00E-5 Molar; for Mean Growth Percent: mean over panel
Protocol: All of the synthesised structures were selected and submitted to NCI based on computer modelling techniques and the degree of diversity of structures for the evaluation of their antiproliferative activity. The 20 synthesised compounds were selected with their respective NCI codes [NCS D-820157- NCS D-820176] for the inhibition percent assay at an initial single dose of 10 μM on the full NCI 60 cell panel, where the mean graph of the percent growth for all compounds on the full NCI cell panel is evaluated, compared to the untreated control cells (Supplementary Material). In vitro cell line inhibition % of all synthesised compounds is represented in (Table 1 of Supplementary Material).
All of the synthesised compounds (20) were submitted to NCI and selected for in vitro anticancer assay against a panel of 60 cancer cell lines. The methodology of assay and calculations is as reported.

EGFR = EGFR (Homo sapiens, UniProt P00533); test: In vitro EGFR tyrosine kinase inhibitory assay (Z'-LYTE, SelectScreen); type: biochemical; details: for inhibition at 10 µM: 10 µM single dose
Protocol: The target compounds were evaluated for their in vitro inhibitory activities against EGFR, VEGFR-2, and HDAC6. The EGFR and VEGFR-2 inhibitory assays were performed at Thermo Fischer Scientific, Madison, WI, USA (SelectScreenServices@thermofisher.com). The HDAC inhibitory assays were performed at BPS Bioscience, San Diego, CA, USA (www.bpsbioscience.com). Initially, all of the synthesised target compounds were evaluated for their percent inhibitory activity against EGFR, VEGFR-2, and HDACs at 10 µM single dose concentration, in which their mean percent inhibition is summarised in (Figure 5, Tables 1 and [2]). Representative compounds were evaluated for their percent inhibitory activity against EGFR and VEGFR-2 at 6 different concentrations (0.1 nM, 1 nM, 10 nM, 100 nM, 1 µM, 10 µM) to subsequently calculate their IC50 values (Table 3). Additionally, all of the synthesised target compounds were submitted to the National Cancer Institute “NCI” Bethesda, Maryland, USA (www.dtp.nci.nih.gov), to evaluate theirs in vitro antiproliferative activities against NCI 60- cancer cell line panel.
In vitro enzyme inhibition determination for the synthesised compounds was carried out in Thermo Fischer Scientific, Madison, WI, USA (SelectScreenServices@thermofisher.com). The EGFR and VEGFR-2 tyrosine kinase % inhibitory activity at a single-dose concentration of 10 µM was performed initially then representative compounds were evaluated at single-dose concentrations of (0.1 nM, 1 nM, 10 nM, 100 nM, 1 µM) using ZYLTE technology. A fluorescence-based, coupled-enzyme format is employed in the biochemical assay and depends on the sensitivity of proteolytic cleavage to non-phosphorylated and phosphorylated peptides. Then IC50 values for selected compounds were determined by GraphPad Prism at Misr international university.

Sequence of EGFR (P00533 25-1210): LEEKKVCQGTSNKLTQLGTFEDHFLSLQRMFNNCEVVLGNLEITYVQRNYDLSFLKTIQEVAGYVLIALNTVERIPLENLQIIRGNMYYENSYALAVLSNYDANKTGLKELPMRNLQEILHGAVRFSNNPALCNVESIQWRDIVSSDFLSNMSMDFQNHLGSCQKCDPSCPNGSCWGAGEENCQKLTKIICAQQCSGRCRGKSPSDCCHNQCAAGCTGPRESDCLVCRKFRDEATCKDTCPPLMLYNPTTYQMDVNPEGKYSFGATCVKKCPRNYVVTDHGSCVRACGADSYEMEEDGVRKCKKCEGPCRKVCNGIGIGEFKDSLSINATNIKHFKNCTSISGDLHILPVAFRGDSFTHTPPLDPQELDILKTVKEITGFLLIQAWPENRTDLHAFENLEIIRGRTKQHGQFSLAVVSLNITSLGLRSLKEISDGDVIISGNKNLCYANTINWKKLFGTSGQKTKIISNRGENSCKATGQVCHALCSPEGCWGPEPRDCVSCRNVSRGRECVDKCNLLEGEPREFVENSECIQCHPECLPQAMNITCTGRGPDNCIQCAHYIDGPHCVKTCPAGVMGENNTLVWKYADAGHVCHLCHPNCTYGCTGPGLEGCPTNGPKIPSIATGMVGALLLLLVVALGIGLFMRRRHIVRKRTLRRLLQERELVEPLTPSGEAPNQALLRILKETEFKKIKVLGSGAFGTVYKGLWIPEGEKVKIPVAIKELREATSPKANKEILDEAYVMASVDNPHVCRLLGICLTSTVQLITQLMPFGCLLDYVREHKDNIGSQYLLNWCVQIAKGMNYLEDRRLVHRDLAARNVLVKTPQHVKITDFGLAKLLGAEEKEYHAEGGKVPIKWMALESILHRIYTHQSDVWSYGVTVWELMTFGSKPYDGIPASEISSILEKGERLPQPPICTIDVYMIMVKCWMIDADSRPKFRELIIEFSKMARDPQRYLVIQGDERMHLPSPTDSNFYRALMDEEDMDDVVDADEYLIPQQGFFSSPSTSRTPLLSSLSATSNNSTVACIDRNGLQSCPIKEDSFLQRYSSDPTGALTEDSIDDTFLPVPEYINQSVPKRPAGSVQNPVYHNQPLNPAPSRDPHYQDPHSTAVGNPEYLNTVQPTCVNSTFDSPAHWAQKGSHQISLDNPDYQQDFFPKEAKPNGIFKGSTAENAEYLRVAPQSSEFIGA

| SMILES | Growth Percent (HCT-15) | Growth Percent (K-562) | Growth Percent (PC-3) | Growth Percent (HT29) | Growth Percent (NCI/ADR-RES) | Growth Percent (MDA-MB-435) | Growth Percent (MDA-MB-468) | Growth Percent (OVCAR-8) | Growth Percent (OVCAR-5) | Growth Percent (SK-MEL-5) | Growth Percent (HL-60(TB)) | Growth Percent (SN12C) | Growth Percent (NCI-H460) | Growth Percent (SK-MEL-28) | Growth Percent (UO-31) | Growth Percent (NCI-H23) | Growth Percent (OVCAR-4) | Growth Percent (SNB-75) | Growth Percent (BT-549) | Growth Percent (U251) | also measured |
| --- | --- | --- | --- | --- | --- | --- | --- | --- | --- | --- | --- | --- | --- | --- | --- | --- | --- | --- | --- | --- | --- |
| Cc1c(C(=O)NCCCC(=O)NO)sc2ncnc(Nc3ccccc3)c12 [Compound 20b, N-(4-(hydroxyamino)-4-oxobutyl)-5-methyl-4-(phenylamino)thieno[2,3-d]pyrimidine-6-carboxamide] | 100.2% and 100.23% | 104.9% and 104.96% | 108% | 102.3% and 102.36% | 100.6% and 100.67% | 103.3% and 103.32% | 98.0% and 98.03% | 98.7% | 100.2% and 100.23% | 97.6% and 97.62% | 104.1% and 104.16% | 100.3% and 100.34% | 99.4% and 99.46% | 115.5% and 115.55% | 88.2% and 88.29% | 99.6% and 99.63% | 105.4% and 105.47% | 95.6% | 128.8% and 128.88% | 98.2% and 98.23% | Growth Percent (CCRF-CEM): 102.7% and 102.73%; Growth Percent (NCI-H322M): 107.3% and 107.33%; Delta (one dose mean graph) (full NCI 60 cell panel): 14.62%; Range (one dose mean graph) (full NCI 60 cell panel): 40.59%; Mean Growth Percent (full NCI 60 cell panel): 102.91%; melting point: 205 °C; inhibition at 0.0001 µM (EGFR; 0.1 nM compound, 10 μM ATP, read-out: % Inhibition mean, EGFR (ErbB1)): 2%; inhibition at 0.001 µM (EGFR; 1 nM compound, 10 μM ATP, read-out: % Inhibition mean, EGFR (ErbB1)): 1%; inhibition at 0.01 µM (EGFR; 10 nM compound, 10 μM ATP, read-out: % Inhibition mean, EGFR (ErbB1)): 7%; inhibition at 0.1 µM (EGFR; 100 nM compound, 10 μM ATP, read-out: % Inhibition mean, EGFR (ErbB1)): 35%; inhibition at 1 µM (EGFR; 1000 nM compound, 10 μM ATP, read-out: % Inhibition mean, EGFR (ErbB1)): 85%; inhibition at 10 µM (EGFR): 92%; IC50 (EGFR; read-out: IC50 in enzyme assays EGFR): 155 nM |
| Cc1c(C(=O)NO)sc2ncnc(Nc3ccc(NC(=S)Nc4ccccc4)cc3)c12 [Compound 7d, 1–(4-(6-(hydroxycarbamoyl)-5-methylthieno[2,3-d]pyrimidin-4-ylamino)phenyl)-3-phenylthiourea] | 95.3% and 95.39% | 103.0% and 103.01% | 105.6% and 105.68% | 102.7% and 102.73% | 99.5% and 99.55% | 101.3% and 101.34% | 103.9% and 103.92% | 103.1% | 102.8% | 101.2% and 101.24% | 102.7% and 102.72% | 100.8% and 100.86% | 102.0% and 102.05% | 105.0% and 105.07% | 85.0% and 85.06% | 96.5% and 96.54% | 104.6% and 104.62% | 87.9% and 87.95% | 106.3% and 106.33% | 104.0% and 104.08% | Growth Percent (NCI-H322M): 107.3% and 107.32%; Delta (one dose mean graph) (full NCI 60 cell panel): 17.28%; Range (one dose mean graph) (full NCI 60 cell panel): 35.68%; Mean Growth Percent (full NCI 60 cell panel): 102.34%; melting point: 300 °C; inhibition at 10 µM (EGFR): 78% |
| Cc1c(C(=O)NO)sc2ncnc(Nc3ccc(F)c(Cl)c3)c12 [Compound 15d, 4–(3-chloro-4-fluorophenylamino)-N-hydroxy-5-methylthieno[2,3-d]pyrimidine-6-carboxamide] | 96.0% and 96.09% | 105.3% and 105.38% | 110.4% and 110.42% | 102.5% and 102.54% | 99.6% and 99.61% | 101.0% and 101.03% | 85.6% and 85.68% | 105.0% and 105.01% | 101.3% and 101.35% | 100.5% and 100.59% | 101.9% and 101.99% | 100.1% and 100.14% | 101.5% and 101.54% | 109.6% and 109.62% | 77.0% and 77.07% | 95.7% and 95.72% | 102.2% and 102.21% | 99.2% | 114.0% and 114.08% | 98.2% | Growth Percent (NCI-H322M): 107.6% and 107.66%; Delta (one dose mean graph) (full NCI 60 cell panel): 24.43%; Range (one dose mean graph) (full NCI 60 cell panel): 43.45%; Mean Growth Percent (full NCI 60 cell panel): 101.50%; melting point: 320 °C; inhibition at 10 µM (EGFR): 97% |
